{"source": "patent US20250099486A1", "about": "“WOUND HEALING MEDICAMENT” (The University of Sheffield, priority 2017, published 2025)", "key": {"[1]": {"assay": "E2 and 2dDR release from PHBV scaffolds in PBS", "assay_type": "physicochemical", "conditions": "by 7 days", "description": "10% (w/w) PHBV solution loaded was prepared prior to electrospinning. 1 g of PHBV granules (Goodfellow, London, UK) were dissolved in 1 g of methanol (Fisher Scientific, Massachusetts, USA) and 8 g of DCM (Fisher Scientific, Massachusetts, USA) in a fume hood. Four 10% PHBV solutions were prepared prior to addition of substances. Finally, 25 mg E2, 50 mg of E2, 250 mg of 2dDR and 500 mg of 2dDR were then added to each solution per 1 g of PHBV. The mixtures were magnetically stirred overnight.\nScaffolds were cut into pieces so to fit into an 6-well plate, weighed and submerged in 4 ml of PBS. The E2 and 2dDR concentrations released from each group (25 mg E2, 50 mg E2, 250 mg 2dDR, 500 mg 2dDR) were measured […] using a UV-VIS spectrophotometer (Thermo Fischer Evolution 220, Massachusetts, USA) at 238 nm for 2dDR and 220 nm for E2. Absorbance values were converted into concentrations using a standard curve of known concentrations of E2 and 2dDR."}, "CAM": {"tested_on": "CAM", "assay": "Ex-ovo CAM assay, direct application of substances", "assay_type": "in vivo, chicken (Gallus domesticus)", "description": "All CAM experiments were carried out according to the Home Office, UK guidelines. Fertilised chicken eggs (Gallus domesticus) were purchased from Henry Stewart & Co. (MedEggs, Norwich, UK). The eggs were carefully wiped with 20% industrial methylated spirit (IMS) solution using hand paper towels in order to remove dirt and feathers from the shell. The eggs were then incubated at 37.5° C. until embryonic development day (EDD) 3, lying horizontally in an humidified egg incubator (RCOM King SURO, P&T Poultry, Powys, Wales).\nOn EDD3, the upper surface of the eggs were marked with a felt pen. The eggs were held horizontally (with the marked surface on top) and cracked on the edge of a 1000 ml glass beaker and kept close to the bottom surface of petri dishes. The embryos were then transferred gently into sterile petri dishes and kept in a humidified incubator (Binder, Tuttlingen, Germany) at 38° C.\nPlastic rings (˜6.5 mm in diameter) were used as a reservoir for substances and a marker for the implantation area, were placed on the CAM, and the substances were applied as 20 μl volume onto the CAM twice a day to give a […] between EDD7 and EDD11. Images of the rings were acquired using a digital microscope at EDD11, and then 20% lens culinaris agglutinin (LCA) (Vector Laboratories, Peterborough, UK) was injected into the circulation for labelling the intravascular endothelial cells using 30G needles under a dissection microscope (Wild Heerbrugg, Heerbrugg, Switzerland). CAMs were then removed and fixed in 3.7% formaldehyde solution. Embryos were sacrificed at the end of EDD11. Fixed CAM samples were then imaged under a confocal microscope (Zeiss LSM 510 Meta, Jena, Germany) for investigating the effect of substances on the microvascular structure of the CAMs.\nBlood vessels were quantified by segmentation of the images [C. Roma-Rodrigues, A. Heuer-Jungemann, A. R. Fernandes, A. G. Kanaras, P. V. Baptista, Peptide-coated gold nanoparticles for modulation of angiogenesis in vivo, IntJ Nanomedicine. 11 (2016) 2633-2639. doi: 10.2147/IJN.S108661] so as to include all discernible vessels and then counting the branch points and calculating average vessel lengths [D. Ribatti, B. Nico, A. Vacca, M. Presta, The gelatin sponge-chorioallantoic membrane assay, Nat Protoc. 1 (2006) 85-91. doi: 10.1038/nprot.2006.13, P. Brooks, A. P. Montgomery, D. Cheresh, Use of the 10-Day-Old Chick Embryo Model for Studying Angiogenesis, Integrin Protoc. 129 (1999) 257-269. doi: 10.1385/1-59259-249-X: 257] via multiple image processing steps. Firstly, the internal area of the ring was cropped, and the red, green and blue channels were split using Adobe Photoshop CS6 (ADOBE Systems Inc., San Jose, California, USA). The green channel was then imported to ImageJ (Wayne Rasband, National Institutes of Health, USA) for further analysis including unsharp mask filtering, enhancing the local contrast, noise removal and segmentation. Finally, the number of branch points was quantified using quantification software (AngioTool, National Cancer Institute, USA) (FIG. 14A) and average blood vessel lengths were calculated by using binary image histograms with known pixel/mm ratios in ImageJ (Wayne Rasband, National Institutes of Health, USA).\nThe percentage vascular area (VA %) of the microvasculature of CAMs were quantified using confocal images of rhodamine labelled lectin injected CAM samples as shown in FIG. 14B. To do this, images were imported to ImageJ (Wayne Rasband, National Institutes of Health, USA) and converted to binary images after filtering and smoothing processes prior to quantification. VA % was calculated using the histogram list of black and white areas in the image.\nAll chemicals were purchased from Sigma Aldrich unless indicated otherwise. […]"}, "[2]": {"tested_on": "chorionic allantoic membrane (CAM)", "assay": "CAM assay of deoxy sugar-loaded biomaterials (in ovo, implanted day 8, scored day 14)", "assay_type": "in vivo, chicken (Gallus domesticus)", "description": "Fertilized chicken (Gallus domesticus) eggs were purchased from Big Bird (Raiwind road, Lahore, Pakistan) and incubated at 37° C. from day 2 of fertilization until day 8 in a humidified egg incubator (HHD, 435, China). At day 8, a square window (1 cm^2) was cut into the shell and removed, and a 2 cm^2 piece of the electrospun scaffold or hydrogels (16% PCL electrospun scaffold/CS/PVA hydrogel/CS/collagen hydrogels) placed onto the CAM. Each egg was implanted with one scaffold or hydrogel only.\nThe shell window was closed with parafilm (Bemis Flexible Packaging, USA) and sealed with adhesive tape. After implantation, eggs were placed again at 37° C. in a 40% humidified incubator until day 14. At day 14, biomaterials were retrieved and the eggs were sacrificed. Angiogenesis was quantified by taking light microscope pictures just before scaffold retrieval and then blindly scored by four assessors using histological images of the retrieved materials. The number of implanted and survived eggs is given in the caption of respective CAM assay figures.\nD and L isomers of three-deoxysugars (ribose, fucose and rhamnose) were loaded onto the porous freeze gelated triethyl orthoformate (4%) covalently cross-linked chitosan/collagen (1:1) hydrogels. The hydrogels were soaked in an aqueous solution of sugars (1 mg/ml) and were further lyophilized (freeze dried) to produce porous membranes. As for the electrospun scaffold, the hydrogels were grafted into the fertilized eggs at day 8 and after day 14 the eggs were sacrificed and the effect of sugars on angiogenesis was investigated."}}, "data": [{"compound": "O=CC[C@H](O)[C@H](O)CO", "note": "[2-deoxy-D-ribose]", "values": [{"measurement": "release from the scaffolds, of the amount present in the polymer solution", "setting": "[1]; 250 mg 2dDR per 1 g PHBV scaffold", "result": 81.3, "unit": "%"}, {"measurement": "release from the scaffolds, of the amount present in the polymer solution", "setting": "[1]; 500 mg 2dDR per 1 g PHBV scaffold", "result": 86.5, "unit": "%"}, {"measurement": "increase of number of branch points", "setting": "CAM; 2dDR 20 μg/day", "result": 1.3, "unit": "times"}, {"measurement": "increase of number of branch points", "setting": "CAM; 2dDR 200 μg/day", "result": 1.4, "unit": "times"}, {"measurement": "percentage vascular area (VA %) of microvasculature", "setting": "CAM; 2dDR 200 μg/day, over 4 days, control 55.3%±3%", "result": "71.7%±3%"}, {"measurement": "angiogenic response (average vessel length) compared to control", "setting": "CAM; 2dDR 1000 μg/day", "result": "no significant difference"}, {"measurement": "increase of average vessel length", "setting": "CAM; both 2dDR 20 μg/day and 200 μg/day", "result": 1.2, "unit": "times"}, {"measurement": "angiogenic response", "setting": "[2]; loaded (1 mg/ml) in cross-linked chitosan/collagen hydrogels", "result": "strongly angiogenic"}, {"measurement": "angiogenesis compared to the control material", "setting": "[2]; loaded in chitosan/PVA triethyl orthoformate cross-linked hydrogels", "result": "promoted angiogenesis"}, {"measurement": "angiogenic potential (new blood vessels)", "setting": "[2]; loaded in electrospun PCL fibers", "result": "growth of extensive new blood vessels under the material"}]}]}
